Literature values in US20200308169A1, “HETEROCYCLIC COMPOUNDS AS ANTIBACTERIALS” (JANSSEN SCIENCES IRELAND UNLIMITED COMPANY, priority 2016, published 2020).
≈ marks a conversion by molar mass, not a printed value.

Columns and labels:
M. tuberculosis H37Rv = conditions: strain H37Rv, inside macrophages
[1] = tested on: replicating and non-replicating bacteria; conditions: both replicating and non-replicating bacteria

Structure (SMILES): CCc1nc2ccc(Cl)cn2c1C(=O)NCc1ccc(N2CCC(c3ccc(OC(F)(F)F)cc3)CC2)cc1 [Q203]
- MIC50 (M. tuberculosis H37Rv): 0.28 nM (≈ 0.156 ng/mL)
- activity against replicating and non-replicating bacteria [1]: highly active
